Assay results from ChEMBL document CHEMBL1147463, “Synthesis and anticancer activity of side chain analogs of the crambescidin alkaloids” (2004).

Assays:
Assay type in all cases: functional
[1] = Murine tumor cell selectivity was measured as zone unit differential between (C38) colon adenocarcinoma and ([…]) murine cell line in disk diffusion soft agar colony formation assay at a concentration of 19 ug/disk
[2] = Human tumor selectivity was measured as zone unit differential between (H116) colon tumor and (CEM) lymphocytic leukemia in disk diffusion soft agar colony formation assay at a concentration of 19 ug/disk
[3] = Human tumor selectivity was measured as zone unit differential between (H125) lung small cell carcinoma and (CEM) lymphocytic leukemia in disk diffusion soft agar colony formation assay at a concentration of 19 ug/disk
[4] = Murine tumor cell selectivity was measured as zone unit differential between ([…]) murine cell line and (CFU) normal bone marrow in disk diffusion soft agar colony formation assay at a concentration of 19 ug/disk
[5] = Murine tumor cell selectivity was measured as zone unit differential between (C38) colon adenocarcinoma and (CFU) normal bone marrow in disk diffusion soft agar colony formation assay at a concentration of 19 ug/disk
[6] = Murine tumor cell selectivity was measured as zone unit differential between (C38) colon adenocarcinoma and ([…]) murine cell line in disk diffusion soft agar colony formation assay at a concentration of 1 ug/disk
[7] = Murine tumor cell selectivity was measured as zone unit differential between ([…]) murine cell line and (CFU) normal bone marrow in disk diffusion soft agar colony formation assay at a concentration of 1 ug/disk
[8] = Human tumor selectivity was measured as zone unit differential between (H125) lung small cell carcinoma and (CEM) lymphocytic leukemia in disk diffusion soft agar colony formation assay at a concentration of 1 ug/disk
[9] = Murine tumor cell selectivity was measured as zone unit differential between (C38) colon adenocarcinoma and (CFU) normal bone marrow in disk diffusion soft agar colony formation assay at a concentration of 1 ug/disk
[10] = Human tumor selectivity was measured as zone unit differential between (H116) colon tumor and (CEM) lymphocytic leukemia in disk diffusion soft agar colony formation assay at a concentration of 1 ug/disk

Work on `CC[C@H]1C=CCC[C@@]2(C[C@@H]3CC[C@@H]4C[C@]5(CCC[C@@H](C)O5)NC(=[N+]43)N2)O1.[Cl-]` yielded a Selectivity [1] of -350, a Selectivity [2] of 0 and a Selectivity [3] of 150. It also gave a Selectivity [4] of 350 and a Selectivity [5] of 0.
Work on `CC[C@H]1C=CCC[C@@]2(C[C@@H]3CC[C@@H]4[C@H](C(=O)O)[C@]5(CCC[C@@H](C)O5)NC(=[N+]34)N2)O1.[Cl-]` yielded a Selectivity [1] of -250, a Selectivity [2] of 50 and a Selectivity [3] of 100. The Selectivity [4] was 200 and the Selectivity [5] was -50.
`C=CCOC(=O)[C@H]1[C@H]2CC[C@H]3C[C@@]4(CCC=C[C@H](CC)O4)NC(=[N+]32)N[C@@]12CCC[C@@H](C)O2.[Cl-]` showed a Selectivity [6] of 350, a Selectivity [7] of 100 and a Selectivity [8] of 0. The Selectivity [9] was 450 and the Selectivity [10] was 0.
With `CC[C@H]1C=CCC[C@@]2(C[C@@H]3CC[C@@H]4[C@H](C(=O)OC/C=C/c5ccccc5)[C@]5(CCC[C@@H](C)O5)NC(=[N+]34)N2)O1.[Cl-]` the Selectivity [1] was 150, the Selectivity [2] was 200 and the Selectivity [3] was 200. The Selectivity [4] was -50 and the Selectivity [5] was 100.
